Data set [1] can be described thus: Vapor pressure in high-pressure cell. The data set is classed as physicochemical. On the procedure:
A high-pressure cell equipped with a certified pressure gauge was evacuated by a vacuum pump to remove all permanent gases. 14.21 g of 1233xf and 9.17 g of E-1233zd were then loaded into the cell individually by a stainless steel syringe pump. The high-pressure cell was placed in an orbital shaker in which temperature was controlled at the accuracy of 0.1° C. […] At each temperature the pressure was measured after one hour in order to achieve equilibrium. The accuracy of the pressure gauge was + or −0.1 psia. […] The measured pressure can be seen in Table 1.

Data set [2] can be described thus: Evaporator cleaning (flushing). The conditions noted are these: flushing 10 minutes at ambient temperature; compared with HFC-245fa. On the procedure: An evaporator from a refrigeration system contains a known quantity of 300 SUS mineral oil. The evaporator could be flushed with flushing agent for 10 minutes at ambient temperature. Following the flushing period, the quantity of oil and residue removed would be determined. This could be done by measuring the weight of the evaporator following flushing and evacuation of flushing agent and/or by stripping the flushing agent from the removed oil and residue and weighing that. HFC-245fa and trans-HCFO-1233zd would be used as flushing agents.

Another data set can be described thus: AMES testing. Type of data set: cell-based. The conditions noted are these: compared with the cis isomer. The text has this: A major portion of the HCFO-1233zd of the present invention is the trans isomer. […] A preferred ratio of trans and cis isomers of HCFO-1233zd is less than about 30% weight of the combination of the cis isomer, and preferably less than about 10% of the cis isomer. The most preferred ratio is less than about 3% of the cis isomer. […] The preferred Kauri-butanol value of the composition of the present invention is above 15 and preferably above 20.

A short description of data set [3]: Cleaning of mineral oil from stainless steel plates. As to conditions: immersion 5 minutes at ambient temperature. On the procedure:
(§1) A small quantity of commercial lubricant oil was deposited on the surface of several 30×10 mm stainless steel plates. The mass of each plate was determined with a precision of 0.1 mg before and after deposition. The difference between these two values corresponds to the initial mass of lubricant.
(§2) Once the initial mass is obtained, each steel plate is immersed in a beaker filled with a cleaning composition at ambient temperature for 5 minutes. Thereafter, the steel plates were removed from the beaker and dried in the open air for 5 minutes. Thereafter, the mass of each plate was determined to evaluate the percentage of lubricant oil removed during the test.
A procedure similar to Example 5 was followed using commercial natural mineral oil for high pressure.

Data set [4] can be described thus: Flash point, ASTM D3278-96. Type of data set: physicochemical. The text has this:
Flammability of a solvent is related to safety of its use. For most application, it is desirable that a solvent have as low a flammable as possible. The flammability of E-1233zd was characterized by flash point measured according to ASTM D3278-96. The flash point of TDCE and HCFC 225 were used as comparative examples.

A short description of data set [5]: Defluxing of solder flux from stainless steel plates. As for the experimental part: A small quantity of commercial solder flux was deposited on the surface of several 30×10 mm stainless steel plates. The mass of each plate was determined with a precision of 0.1 mg before deposition and corresponds to the tare. The plates were heated to 250° C. until fusion of the metal from the solder flux (between 1 and 2 min.). The metal could then be easily removed from the plates and only the flux remained on them.
The plates prepared with this method were dried in the open air at ambient temperature for 16 hours. The mass of each dried plate was determined with a precision of 0.1 mg before and after deposition. The difference between these two values corresponds to the initial mass of flux.
Once the initial mass was obtained, half of the steel plates are immersed in a beaker filled with a cleaning composition at ambient temperature for 30 minutes and the other half of the plates immersed in a beaker filled with the cleaning solution for 60 minutes. After the immersion, the steel plates were removed from the beakers and dried in the open air for 5 minutes. Thereafter, the mass of each plate was determined to evaluate the percentage of flux removed during the test.

A short description of data set [6]: Cleaning of silicone oil from stainless steel plates. As to conditions: silicon oil; immersion 5 minutes at ambient temperature. As for the experimental part: as §1, §2
A procedure similar to Example 5 was followed using silicon oil. The results were summarized as in Table 6

Data set [7] in a line: Degreasing of lubricant oil from stainless steel plates. As to conditions: immersion 5 minutes at ambient temperature. As for the experimental part:
as §1, §2

Data set [8] is described as follows: Residual flushing agent after drying of evaporator. The conditions noted are these: 25 °C, air flow, 10 minutes drying; compared with trans-HCFO-1233zd. As for the experimental part:
To a clean evaporator from an air conditioning, a measured quantity of flushing liquid would be added to simulate conditions following an open-loop evaporator flushing procedure. The evaporator would be maintained at 25° C. with a slow flow of air passing through the evaporator to assist in drying. The evaporator would be dried such as for 10 minutes and then weighed to measure the quantity of flushing agent remaining.

With `C=C(Cl)C(F)(F)F` [1233xf, 2-chloro-3,3,3-trifluoropropene, reference compound], the Pressure is 11.5 psia in data set [1] (5.0 °C); 16.8 psia in data set [1] (15.0 °C); 18.3 psia in data set [1] (18.5 °C); 23.8 psia in [1] (25.0 °C); 32.7 psia in [1] (35.0 °C). Moreover, the “Pressure versus atmospheric pressure” value in [1] (temperature range 15 to 25 °C) is on record as more than 14.7 psia.
In the case of `FC(F)(F)/C=C/Cl` [E-1233zd, 1-chloro-3,3,3-trifluoropropene], the Pressure turned out to be 9.1 psia in data set [1] (5.0 °C); 13.7 psia in data set [1] (15.0 °C); 14.7 psia in data set [1] (18.5 °C); 19.7 psia in [1] (25.0 °C); 27.5 psia in data set [1] (35.0 °C). In addition, the “Pressure versus atmospheric pressure” value in data set [1] (temperature range 5 to 15 °C) was “lower than atmospheric”. In addition, in data set [2], the “Percentage of oil and residue removed during flushing” value is on record as “greater percentage”. The “Genotoxicity in AMES testing” value in “AMES testing” is given as “significantly lower genotoxicity”. Also, the Removal rate in data set [3] is 57.2%; in data set [6], 99.10%; in data set [7], 99.10%. In [4], the Flash point entry was “No”. In addition, the “Removal rate for 30 mn” value in data set [5] (immersion 30 minutes at ambient temperature) was 36.04%. Further, the “Removal rate for 60 mn” value in data set [5] (immersion 60 minutes at ambient temperature) was found to be 26.24%.
For the compound `CC(F)(Cl)Cl` [HCFC 141b, 1,1-dichloro-1-fluoroethane, reference compound], the Removal rate in data set [6] is given as 98.40%; in data set [7], 99.60%.
As for `COC(C)=O` [Methyl acetate], in [3], the Removal rate is 31.67%.
In data set [3], `Cl/C=C/Cl` [TDCE, trans-1,2-dichloroethylene] registered a Removal rate of 88.51%. In addition, the Flash point entry in [4] is given as “Yes”.
Regarding `FC(F)(F)/C=C/Cl` [cis-HCFO-1233zd, 1-chloro-3,3,3-trifluoropropene], the “Quantity of flushing agent remaining after drying” value in data set [8] was “more cis-HCFO-1233zd would remain”.
Take dichloropentafluoropropane [HCFC 225]: the Flash point entry in data set [4] was “No”.
